Reference: article PMC5218480 (PLoS ONE, 2017)

System: MV-4-11 cells
Assay: Gene expression microarray analysis (Affymetrix PrimeView) and GSEA
Assay type: cell-based, human
Design: RFU PODN (11730768_x_at) / Fold change /veh PODN (11730768_x_at) / RFU LINC00158 (11744669_a_at) / Fold change /veh LINC00158 (11744669_a_at) / RFU DUSP10 (11751237_a_at) / Fold change /veh DUSP10 (11751237_a_at) / RFU ID3 (11757404_x_at) / Fold change /veh ID3 (11757404_x_at) / RFU PLEKHG5 (11737974_s_at) / Fold change /veh PLEKHG5 (11737974_s_at) / RFU LRRC4B (11730491_at) / Fold change /veh LRRC4B (11730491_at) / RFU GIMAP4 (11747438_a_at) / Fold change /veh GIMAP4 (11747438_a_at) / RFU KRT8 (11758183_x_at) / Fold change /veh KRT8 (11758183_x_at) / RFU CNN1 (11734310_a_at) / Fold change /veh CNN1 (11734310_a_at) / RFU VPS37D (11726825_at) / Fold change /veh VPS37D (11726825_at) / RFU C10orf10 (11716522_x_at) / Fold change /veh C10orf10 (11716522_x_at) / RFU KIR2DL2 /// KIR2DL4 /// KIR2DL5A /// KIR2DL5B /// KIR2DS1 /// KIR2DS2 /// KIR2DS3 /// KIR2DS4 /// KIR3DL3 /// KIR3DL3 /// KIR3DS1 (11738374_at) / Fold change /veh KIR2DL2 /// KIR2DL4 /// KIR2DL5A /// KIR2DL5B /// KIR2DS1 /// KIR2DS2 /// KIR2DS3 /// KIR2DS4 /// KIR3DL3 /// KIR3DL3 /// KIR3DS1 (11738374_at) / RFU C1QL1 (11718748_at) / Fold change /veh C1QL1 (11718748_at) / RFU TMPRSS4 (11747572_a_at) / Fold change /veh TMPRSS4 (11747572_a_at) / RFU HAMP (11756126_x_at) / Fold change /veh HAMP (11756126_x_at) / RFU RNFT2 (11725882_a_at) / Fold change /veh RNFT2 (11725882_a_at) / RFU NR4A2 (11747474_a_at) / Fold change /veh NR4A2 (11747474_a_at) / RFU ABCC12 (11746883_a_at) / Fold change /veh ABCC12 (11746883_a_at) / RFU TMEM136 (11760407_x_at) / Fold change /veh TMEM136 (11760407_x_at) / RFU CLDN22 /// WWC2 (11732394_at) / Fold change /veh CLDN22 /// WWC2 (11732394_at) / RFU HLA-DPB1 (11760878_x_at) / Fold change /veh HLA-DPB1 (11760878_x_at) / RFU SPINT1 (11716480_a_at) / Fold change /veh SPINT1 (11716480_a_at) / RFU GAP43 (11754022_s_at) / Fold change /veh GAP43 (11754022_s_at) / RFU A4GNT (11735810_at) / Fold change /veh A4GNT (11735810_at) / RFU PRB3 (11715151_x_at) / Fold change /veh PRB3 (11715151_x_at) / RFU TUBB4B (11761932_at) / Fold change /veh TUBB4B (11761932_at) / RFU CAPN14 (11732068_a_at) / Fold change /veh CAPN14 (11732068_a_at) / RFU TMCC2 (11721928_a_at) / Fold change /veh TMCC2 (11721928_a_at) / RFU IRGQ (11745062_a_at) / Fold change /veh IRGQ (11745062_a_at) / RFU FAM174B (11720279_a_at) / Fold change /veh FAM174B (11720279_a_at) / RFU TMPRSS4 (11748680_a_at) / Fold change /veh TMPRSS4 (11748680_a_at) / RFU FAM212B (11763350_a_at) / Fold change /veh FAM212B (11763350_a_at) / RFU PLEKHG5 (11743358_a_at) / Fold change /veh PLEKHG5 (11743358_a_at) / RFU ZSCAN30 (11745921_a_at) / Fold change /veh ZSCAN30 (11745921_a_at) / RFU CMKLR1 (11741424_a_at) / Fold change /veh CMKLR1 (11741424_a_at) / RFU LOC101060620 /// MAPK8IP1 (11723275_at) / Fold change /veh LOC101060620 /// MAPK8IP1 (11723275_at) / RFU SPTSSB (11747773_x_at) / Fold change /veh SPTSSB (11747773_x_at) / RFU PRSS12 (11739890_at) / Fold change /veh PRSS12 (11739890_at) / RFU BIN1 (11741810_x_at) / Fold change /veh BIN1 (11741810_x_at) / RFU WNT11 (11732464_a_at) / Fold change /veh WNT11 (11732464_a_at) / RFU C10orf10 (11716521_a_at) / Fold change /veh C10orf10 (11716521_a_at) / RFU C5orf56 (11738089_at) / Fold change /veh C5orf56 (11738089_at) / RFU CYB561 (11721691_x_at) / Fold change /veh CYB561 (11721691_x_at) / RFU ANKRD19P (11752326_a_at) / Fold change /veh ANKRD19P (11752326_a_at) / RFU OR2T12 /// OR2T33 /// OR2T8 (11738714_s_at) / Fold change /veh OR2T12 /// OR2T33 /// OR2T8 (11738714_s_at) / RFU VCAN (11748164_a_at) / Fold change /veh VCAN (11748164_a_at) / RFU JSRP1 (11732532_at) / Fold change /veh JSRP1 (11732532_at) / RFU KRTAP10-11 (11738290_x_at) / Fold change /veh KRTAP10-11 (11738290_x_at) / RFU MYO3A (11730013_a_at) / Fold change /veh MYO3A (11730013_a_at) / RFU EBF3 (11725865_a_at) / Fold change /veh EBF3 (11725865_a_at) / RFU CAMK2N1 (11719241_x_at) / Fold change /veh CAMK2N1 (11719241_x_at) / RFU C5orf56 (11738088_a_at) / Fold change /veh C5orf56 (11738088_a_at) / RFU OLFML3 (11715873_a_at) / Fold change /veh OLFML3 (11715873_a_at) / RFU LOC100653217 /// NTM (11731650_a_at) / Fold change /veh LOC100653217 /// NTM (11731650_a_at) / RFU MAPK11 (11762145_a_at) / Fold change /veh MAPK11 (11762145_a_at) / RFU FIZ1 (11724087_x_at) / Fold change /veh FIZ1 (11724087_x_at) / RFU OASL (11726364_x_at) / Fold change /veh OASL (11726364_x_at) / RFU SOX15 (11748057_x_at) / Fold change /veh SOX15 (11748057_x_at) / RFU CD79A (11719716_a_at) / Fold change /veh CD79A (11719716_a_at) / RFU HIST1H1D (11736915_at) / Fold change /veh HIST1H1D (11736915_at) / RFU CASKIN2 (11723855_a_at) / Fold change /veh CASKIN2 (11723855_a_at) / RFU LOC730098 (11760151_x_at) / Fold change /veh LOC730098 (11760151_x_at) / RFU OR4N2 (11742367_at) / Fold change /veh OR4N2 (11742367_at) / RFU PRRT2 (11749266_a_at) / Fold change /veh PRRT2 (11749266_a_at) / RFU SNX32 (11753110_a_at) / Fold change /veh SNX32 (11753110_a_at) / RFU CDHR5 (11726645_a_at) / Fold change /veh CDHR5 (11726645_a_at) / RFU RCAN1 (11760418_a_at) / Fold change /veh RCAN1 (11760418_a_at) / RFU FAM167A (11723789_a_at) / Fold change /veh FAM167A (11723789_a_at) / RFU FAM26E (11764081_at) / Fold change /veh FAM26E (11764081_at) / RFU ISYNA1 (11749810_s_at) / Fold change /veh ISYNA1 (11749810_s_at) / RFU ACY1 (11761880_at) / Fold change /veh ACY1 (11761880_at) / RFU 11764098_at / Fold change /veh 11764098_at / RFU SAMD14 (11745864_x_at) / Fold change /veh SAMD14 (11745864_x_at) / RFU NPB (11741838_a_at) / Fold change /veh NPB (11741838_a_at) / RFU TMPRSS6 (11731388_a_at) / Fold change /veh TMPRSS6 (11731388_a_at) / RFU KRTAP10-2 (11738614_at) / Fold change /veh KRTAP10-2 (11738614_at) / RFU ARHGAP8 /// PRR5-ARHGAP8 (11727945_x_at) / Fold change /veh ARHGAP8 /// PRR5-ARHGAP8 (11727945_x_at) / RFU KRTAP5-7 /// NADSYN1 (11734609_at) / Fold change /veh KRTAP5-7 /// NADSYN1 (11734609_at) / RFU RASL12 (11751679_a_at) / Fold change /veh RASL12 (11751679_a_at) / RFU CDKN2B (11736163_a_at) / Fold change /veh CDKN2B (11736163_a_at) / RFU PRF1 (11729649_at) / Fold change /veh PRF1 (11729649_at) / RFU, ZNF638 /// ZNF638-IT1 / Fold change vs veh, ZNF638 /// ZNF638-IT1 / RFU, PANK3 / Fold change vs veh, PANK3 / RFU, SH3YL1 / Fold change vs veh, SH3YL1 / RFU, ZEB2 / Fold change vs veh, ZEB2 / RFU, NRIP1 / Fold change vs veh, NRIP1 / RFU, PTTG1IP / Fold change vs veh, PTTG1IP / RFU, CAPN2 / Fold change vs veh, CAPN2 / RFU, MED14 / Fold change vs veh, MED14 / RFU, SNORA58 / Fold change vs veh, SNORA58 / RFU, C1orf63 / Fold change vs veh, C1orf63 / RFU, LRRFIP1 / Fold change vs veh, LRRFIP1 / RFU, NDUFAF7 / Fold change vs veh, NDUFAF7 / RFU, SLC12A2 / Fold change vs veh, SLC12A2 / RFU, IBTK / Fold change vs veh, IBTK / RFU, ESF1 / Fold change vs veh, ESF1 / Fold change vs veh, TMEM50B / RFU, TAOK1 / Fold change vs veh, TAOK1 / RFU, ACBD3 / Fold change vs veh, ACBD3 / RFU, TMA16 / Fold change vs veh, TMA16 / RFU, RWDD3 / Fold change vs veh, RWDD3 / RFU, BCAT1 / Fold change vs veh, BCAT1 / RFU, EDEM3 / Fold change vs veh, EDEM3 / RFU, TMEM33 / Fold change vs veh, TMEM33 / RFU, WDR75 / Fold change vs veh, WDR75 / RFU, AHCTF1 / Fold change vs veh, AHCTF1 / RFU, TFRC / Fold change vs veh, TFRC / RFU, ZDHHC17 / Fold change vs veh, ZDHHC17 / RFU, NOM1 / Fold change vs veh, NOM1 / RFU, ARL8B / Fold change vs veh, ARL8B / RFU, ZBTB11 / Fold change vs veh, ZBTB11 / RFU, TAMM41 / Fold change vs veh, TAMM41 / RFU, KIAA1704 /// LOC100996395 / Fold change vs veh, KIAA1704 /// LOC100996395 / RFU, ING1 / Fold change vs veh, ING1 / RFU, TRMT61B / Fold change vs veh, TRMT61B / RFU, FUBP3 / Fold change vs veh, FUBP3 / RFU, TP53 / Fold change vs veh, TP53 / RFU, TNKS2 / Fold change vs veh, TNKS2 / RFU, ZFP14 / Fold change vs veh, ZFP14 / RFU, ACTR2 / Fold change vs veh, ACTR2 / RFU, PPP3R1 / Fold change vs veh, PPP3R1 / RFU, PIK3R1 / Fold change vs veh, PIK3R1 / RFU, HNRNPA1 / Fold change vs veh, HNRNPA1 / RFU, RNF170 / Fold change vs veh, RNF170 / RFU, ZNF28 / Fold change vs veh, ZNF28 / RFU, RNGTT / Fold change vs veh, RNGTT / RFU, OGT / Fold change vs veh, OGT / RFU, BRD1 / Fold change vs veh, BRD1 / RFU, MARS / Fold change vs veh, MARS / RFU, ZNF655 / Fold change vs veh, ZNF655 / RFU, FAHD1 / Fold change vs veh, FAHD1 / RFU, BDP1 / Fold change vs veh, BDP1 / RFU, LRRCC1 / Fold change vs veh, LRRCC1 / RFU, ARID1A / Fold change vs veh, ARID1A / RFU, ZNF146 / Fold change vs veh, ZNF146 / RFU, ZNF330 / Fold change vs veh, ZNF330 / RFU, GPN3 / Fold change vs veh, GPN3 / RFU, C9orf123 / Fold change vs veh, C9orf123 / RFU, N4BP2L2 / Fold change vs veh, N4BP2L2 / RFU, ARFIP1 / Fold change vs veh, ARFIP1 / RFU, FAM179B / Fold change vs veh, FAM179B / RFU, BCL10 / Fold change vs veh, BCL10 / RFU, UHRF1BP1L / Fold change vs veh, UHRF1BP1L / RFU, BET1 / Fold change vs veh, BET1 / RFU, CNOT2 / Fold change vs veh, CNOT2 / RFU, ZNF268 / Fold change vs veh, ZNF268 / Fold change vs veh, ZNF507 / RFU, DGCR2 / Fold change vs veh, DGCR2 / RFU, WDSUB1 / Fold change vs veh, WDSUB1 / Fold change vs veh, HSP90B1 /// MIR3652 / RFU, ADSS / Fold change vs veh, ADSS / RFU, GK / Fold change vs veh, GK / RFU, ZNF148 / Fold change vs veh, ZNF148 / RFU, TAF9 / Fold change vs veh, TAF9 / RFU, SLC1A5 / Fold change vs veh, SLC1A5 / RFU, SLMO2 / Fold change vs veh, SLMO2 / RFU, ABCC4 / Fold change vs veh, ABCC4 / RFU, LOC101060439 /// RAP1B / Fold change vs veh, LOC101060439 /// RAP1B / RFU, RFX7 / Fold change vs veh, RFX7 / RFU, GTPBP10 / Fold change vs veh, GTPBP10 / RFU, CNEP1R1 / Fold change vs veh, CNEP1R1 / RFU, BIVM-ERCC5 /// ERCC5 / Fold change vs veh, BIVM-ERCC5 /// ERCC5 / RFU, ILF3 / Fold change vs veh, ILF3 / RFU 11762660_at / Fold change /veh 11762660_at / RFU VCAN (11757783_s_at) / Fold change /veh VCAN (11757783_s_at) / RFU DDX43 (11728927_at) / Fold change /veh DDX43 (11728927_at) / RFU KRT8 (11758188_x_at) / Fold change /veh KRT8 (11758188_x_at) / RFU NKD1 (11759106_at) / Fold change /veh NKD1 (11759106_at) / RFU SRD5A1 (11742802_a_at) / Fold change /veh SRD5A1 (11742802_a_at) / RFU TPSAB1 /// TPSB2 (11721975_s_at) / Fold change /veh TPSAB1 /// TPSB2 (11721975_s_at) / RFU GSTM3 (11746129_a_at) / Fold change /veh GSTM3 (11746129_a_at) / RFU IL23R (11737362_x_at) / Fold change /veh IL23R (11737362_x_at) / RFU TMEM51 (11727254_a_at) / Fold change /veh TMEM51 (11727254_a_at) / RFU PIWIL2 (11732686_x_at) / Fold change /veh PIWIL2 (11732686_x_at) / RFU ORM1 (11744905_x_at) / Fold change /veh ORM1 (11744905_x_at) / RFU CCDC152 (11743942_at) / Fold change /veh CCDC152 (11743942_at) / RFU ECM1 (11717891_a_at) / Fold change /veh ECM1 (11717891_a_at) / RFU IL23R (11748794_a_at) / Fold change /veh IL23R (11748794_a_at) / RFU TNFAIP8L3 (11732012_x_at) / Fold change /veh TNFAIP8L3 (11732012_x_at) / RFU MBOAT4 (11741988_at) / Fold change /veh MBOAT4 (11741988_at) / RFU 11764193_at / Fold change /veh 11764193_at / RFU TMEM53 (11763286_at) / Fold change /veh TMEM53 (11763286_at) / RFU MAGEB2 (11727129_at) / Fold change /veh MAGEB2 (11727129_at) / RFU TMEM200A (11744735_a_at) / Fold change /veh TMEM200A (11744735_a_at) / RFU CCDC152 (11751479_a_at) / Fold change /veh CCDC152 (11751479_a_at) / RFU FAM211A (11726209_a_at) / Fold change /veh FAM211A (11726209_a_at) / RFU RGS16 (11746705_a_at) / Fold change /veh RGS16 (11746705_a_at) / RFU VCAN (11755009_s_at) / Fold change /veh VCAN (11755009_s_at) / RFU RHOB (11743442_s_at) / Fold change /veh RHOB (11743442_s_at) / RFU RGS16 (11720943_a_at) / Fold change /veh RGS16 (11720943_a_at) / RFU RGS16 (11720944_at) / Fold change /veh RGS16 (11720944_at) / RFU, VPS4B / Fold change vs veh, VPS4B / RFU, CREB1 / Fold change vs veh, CREB1 / RFU, DNAJC13 / Fold change vs veh, DNAJC13 / RFU, GNAQ / Fold change vs veh, GNAQ / RFU, CDK5R1 / Fold change vs veh, CDK5R1 / RFU, ZRANB3 / Fold change vs veh, ZRANB3 / RFU, CUL4A / Fold change vs veh, CUL4A / RFU, CCNY / Fold change vs veh, CCNY / RFU, UFL1 / Fold change vs veh, UFL1 / RFU, COG3 / Fold change vs veh, COG3 / RFU, DIAPH2 / Fold change vs veh, DIAPH2 / RFU, SKA2 / Fold change vs veh, SKA2 / RFU, AFF3 / Fold change vs veh, AFF3 / RFU, LMF1 / Fold change vs veh, LMF1 / RFU, IPO11 / Fold change vs veh, IPO11 / RFU, DFFB / Fold change vs veh, DFFB / RFU, FOXP1 / Fold change vs veh, FOXP1 / RFU, CARD8 / Fold change vs veh, CARD8 / RFU, STRN3 / Fold change vs veh, STRN3 / RFU, ADK / Fold change vs veh, ADK / RFU, RASSF2 / Fold change vs veh, RASSF2 / RFU, WIPF1 / Fold change vs veh, WIPF1 / RFU, LARP1B / Fold change vs veh, LARP1B / RFU, RASA1 / Fold change vs veh, RASA1 / RFU, RB1 / Fold change vs veh, RB1 / RFU, PPFIA1 / Fold change vs veh, PPFIA1 / RFU, MAT2A / Fold change vs veh, MAT2A / RFU, CCT5 / Fold change vs veh, CCT5 / RFU, WDR92 / Fold change vs veh, WDR92 / RFU, CUX1 / Fold change vs veh, CUX1 / RFU, TTC7A / Fold change vs veh, TTC7A / RFU, TMEM135 / Fold change vs veh, TMEM135 / RFU, DEPTOR / Fold change vs veh, DEPTOR / RFU, CPM / Fold change vs veh, CPM / RFU, DNAJB6 / Fold change vs veh, DNAJB6 / RFU, CACNA2D3 / Fold change vs veh, CACNA2D3 / RFU, DTX4 / Fold change vs veh, DTX4 / RFU, TFCP2 / Fold change vs veh, TFCP2 / RFU, GMCL1 /// GMCL1P1 / Fold change vs veh, GMCL1 /// GMCL1P1 / RFU, AEBP2 / Fold change vs veh, AEBP2 / RFU, SNHG1 /// SNORD22 /// SNORD25 /// SNORD26 /// SNORD27 /// SNORD28 /// SNORD29 /// SNORD31 / Fold change vs veh, SNHG1 /// SNORD22 /// SNORD25 /// SNORD26 /// SNORD27 /// SNORD28 /// SNORD29 /// SNORD31 / Fold change (Aza/veh), C12orf56 (ProbeSet 11735607_a_at) / Fold change (ACY-1035/veh), C12orf56 (ProbeSet 11735607_a_at) / Fold change (Aza/veh), FGFR1OP (ProbeSet 11751329_s_at) / Fold change (ACY-1035/veh), FGFR1OP (ProbeSet 11751329_s_at) / Fold change (Aza/veh), VPS36 (ProbeSet 11739960_a_at) / Fold change (ACY-1035/veh), VPS36 (ProbeSet 11739960_a_at) / RFU SYPL1 (11715823_x_at) / Fold change /veh SYPL1 (11715823_x_at) / RFU IGFBP7 (11715501_s_at) / Fold change /veh IGFBP7 (11715501_s_at) / RFU REEP3 (11722064_at) / Fold change /veh REEP3 (11722064_at) / RFU IGLL1 (11728026_x_at) / Fold change /veh IGLL1 (11728026_x_at): dose or concentration left out as unconfirmed
Details: MV-4-11 cells, 48 hours

Nc1ccc(-c2cccs2)cc1NC(=O)c1ccc2c(c1)cc(C1CC1)n2CCN1CCOCC1 [ACY-1035]
Fold change /veh RHOB (11743442_s_at): 1.20
